Values of other authors as cited in patent US6384213B1, “Process for preparing a pure, pharmacopoeial grade amorphous form of cefuroxime axetil” (Ranbaxy Laboratories Limited, priority 1998, dated 2002).

How the values were obtained:
[1] = amorphous form essentially free from crystalline material, purity at least 95%
[2] = amorphous form essentially free from crystalline material, purity at least 95%, compared with crystalline form

- chemical stability [1]: adequate chemical stability
SMILES: CO/N=C(\C(=O)N[C@@H]1C(=O)N2C(C(=O)OC(C)OC(C)=O)=C(COC(N)=O)CS[C@H]12)c1ccco1 (some centres unmarked) [cefuroxime axetil in amorphous form, cefuroxime axetil]
- bioavailability [2]: higher bioavailability than the crystalline form
